Reference: patent US9040547B2, “Pyrrolopyrimidine and purine derivatives” (PFIZER INC., priority 2011, dated 2015)

Tests used:
Type in all cases: cell-based
[1] = target: T1, EGFR L858R+T790M, endogenous (Homo sapiens, UniProt P00533, L858R/T790M); assay: pEGFR Y1068 ELISA assay, NCI-H1975 cells; settings: value marked (H1975): NCI-H1975 cells, 2 hrs compound treatment; read-out: pEGFRY1068 ELISA3T3T790M—L858R IC50 (nM), (H1975);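 further: sandwich ELISA of endogenous phospho-EGFR (Tyr1068) in lysates of treated cells, 11-point 1:3 serial dilution tested in duplicate per plate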
T1 construct: NCI-H1975 (EGFR L858R+T790M, endogenous); host or cells: NCI-H1975
T1 sequence (P00533 25-1210 T790M/L858R): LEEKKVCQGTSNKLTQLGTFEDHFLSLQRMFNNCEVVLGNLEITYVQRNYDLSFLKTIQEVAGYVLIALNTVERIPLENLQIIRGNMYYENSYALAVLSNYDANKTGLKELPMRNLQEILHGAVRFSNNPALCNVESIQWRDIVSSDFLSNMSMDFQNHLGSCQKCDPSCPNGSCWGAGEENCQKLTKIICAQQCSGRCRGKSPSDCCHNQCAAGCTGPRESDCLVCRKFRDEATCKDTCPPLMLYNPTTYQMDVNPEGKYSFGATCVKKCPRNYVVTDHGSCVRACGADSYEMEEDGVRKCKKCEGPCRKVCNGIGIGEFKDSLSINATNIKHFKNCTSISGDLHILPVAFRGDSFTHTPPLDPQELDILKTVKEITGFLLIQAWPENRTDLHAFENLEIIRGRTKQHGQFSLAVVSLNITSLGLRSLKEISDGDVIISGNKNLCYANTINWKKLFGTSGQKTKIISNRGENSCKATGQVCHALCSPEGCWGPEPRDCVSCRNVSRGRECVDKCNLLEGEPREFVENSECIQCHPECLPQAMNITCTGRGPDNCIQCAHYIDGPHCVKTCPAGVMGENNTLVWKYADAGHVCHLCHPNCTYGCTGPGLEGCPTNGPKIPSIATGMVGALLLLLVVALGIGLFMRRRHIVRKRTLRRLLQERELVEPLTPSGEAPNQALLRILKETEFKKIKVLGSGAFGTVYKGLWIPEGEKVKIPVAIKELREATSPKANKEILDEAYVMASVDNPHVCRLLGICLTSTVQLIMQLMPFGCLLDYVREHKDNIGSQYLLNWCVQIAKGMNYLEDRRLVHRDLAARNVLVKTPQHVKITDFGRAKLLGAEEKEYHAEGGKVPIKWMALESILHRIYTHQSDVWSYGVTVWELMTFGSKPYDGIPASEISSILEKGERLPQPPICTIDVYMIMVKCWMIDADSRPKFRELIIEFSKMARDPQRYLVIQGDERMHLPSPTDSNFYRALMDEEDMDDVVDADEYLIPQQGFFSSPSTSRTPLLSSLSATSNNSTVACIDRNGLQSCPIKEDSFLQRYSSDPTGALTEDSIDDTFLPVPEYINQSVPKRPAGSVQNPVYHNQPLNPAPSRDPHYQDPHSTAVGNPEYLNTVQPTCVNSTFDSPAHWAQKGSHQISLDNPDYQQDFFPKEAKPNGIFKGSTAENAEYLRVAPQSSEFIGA

EGFR L858R, endogenous = target: T2, EGFR L858R, endogenous (Homo sapiens, UniProt P00533, L858R); assay: pEGFR Y1068 ELISA assay, NCI-H3255 cells; settings: value marked (H3255): NCI-H3255 cells, 2 hrs compound treatment; read-out: pEGFRY1068 ELISA3T3 L858R IC50 (nM), (H3255)
T2 construct: NCI-H3255 (EGFR L858R, endogenous); endogenous in cells; host or cells: NCI-H3255
T2 sequence (P00533 25-1210 L858R): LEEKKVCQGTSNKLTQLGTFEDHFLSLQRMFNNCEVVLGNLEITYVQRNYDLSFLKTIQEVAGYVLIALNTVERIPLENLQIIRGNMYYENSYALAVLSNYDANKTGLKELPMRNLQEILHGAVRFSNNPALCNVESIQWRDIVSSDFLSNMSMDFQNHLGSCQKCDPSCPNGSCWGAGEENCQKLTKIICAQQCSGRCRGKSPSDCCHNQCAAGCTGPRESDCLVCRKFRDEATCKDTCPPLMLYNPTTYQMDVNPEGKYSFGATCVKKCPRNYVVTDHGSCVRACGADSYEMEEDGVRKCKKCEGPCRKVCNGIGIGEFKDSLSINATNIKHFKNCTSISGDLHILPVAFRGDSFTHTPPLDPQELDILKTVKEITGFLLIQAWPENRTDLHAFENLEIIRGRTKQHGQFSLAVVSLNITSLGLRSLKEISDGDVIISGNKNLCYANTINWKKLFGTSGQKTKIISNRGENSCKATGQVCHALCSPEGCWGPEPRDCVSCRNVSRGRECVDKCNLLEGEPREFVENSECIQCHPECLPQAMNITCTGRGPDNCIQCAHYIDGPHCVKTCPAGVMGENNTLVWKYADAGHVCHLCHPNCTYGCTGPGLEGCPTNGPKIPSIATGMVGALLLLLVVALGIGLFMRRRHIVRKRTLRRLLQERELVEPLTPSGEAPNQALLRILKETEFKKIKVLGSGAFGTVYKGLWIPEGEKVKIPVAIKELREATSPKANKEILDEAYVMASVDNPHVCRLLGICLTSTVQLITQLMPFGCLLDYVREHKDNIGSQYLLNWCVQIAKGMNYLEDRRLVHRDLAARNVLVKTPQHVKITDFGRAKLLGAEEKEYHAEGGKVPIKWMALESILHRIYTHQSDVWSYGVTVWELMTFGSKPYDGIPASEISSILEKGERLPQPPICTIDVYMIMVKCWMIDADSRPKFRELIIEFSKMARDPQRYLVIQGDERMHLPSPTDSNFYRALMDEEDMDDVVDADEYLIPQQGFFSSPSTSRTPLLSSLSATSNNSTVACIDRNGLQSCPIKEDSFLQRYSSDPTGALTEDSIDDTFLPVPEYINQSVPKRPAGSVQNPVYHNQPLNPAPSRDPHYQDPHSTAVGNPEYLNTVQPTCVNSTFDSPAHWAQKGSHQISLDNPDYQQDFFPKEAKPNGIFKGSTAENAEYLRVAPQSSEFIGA

[2] = target: T3, EGFR wildtype, endogenous (Homo sapiens, UniProt P00533); assay: pEGFR Y1068 ELISA assay, A549 cells; settings: full serum media, stimulated 10 min with EGF (40 ng/mL), read-out: pEGFRY1068 ELISAA549 IC50;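 further: sandwich ELISA of phospho-EGFR Tyr1068 in cell lysates, cells exposed to compound for 2 h before EGF stimulation, 11-point threefold dilution series run in duplicate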
T3 construct: A549 (EGFR wildtype, endogenous); host or cells: A549

EGFR Del (PC9) = target: T4, EGFR Del (PC9) (Homo sapiens, UniProt P00533, DEL746-750); assay: EGFR ELISA, PC9 Del cells; settings: read-out: EGFR_ELISA9E PC9 Del IC50;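 further: cellular EGFR autophosphorylation at Tyr1068 quantified by sandwich ELISA of cell lysates after 2 h compound exposure at 37 °C, 11-point threefold dilution series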
T4 construct: endogenous in cells; host or cells: PC-9
T4 sequence (P00533 with tags, fused parts or gaps DEL746-750): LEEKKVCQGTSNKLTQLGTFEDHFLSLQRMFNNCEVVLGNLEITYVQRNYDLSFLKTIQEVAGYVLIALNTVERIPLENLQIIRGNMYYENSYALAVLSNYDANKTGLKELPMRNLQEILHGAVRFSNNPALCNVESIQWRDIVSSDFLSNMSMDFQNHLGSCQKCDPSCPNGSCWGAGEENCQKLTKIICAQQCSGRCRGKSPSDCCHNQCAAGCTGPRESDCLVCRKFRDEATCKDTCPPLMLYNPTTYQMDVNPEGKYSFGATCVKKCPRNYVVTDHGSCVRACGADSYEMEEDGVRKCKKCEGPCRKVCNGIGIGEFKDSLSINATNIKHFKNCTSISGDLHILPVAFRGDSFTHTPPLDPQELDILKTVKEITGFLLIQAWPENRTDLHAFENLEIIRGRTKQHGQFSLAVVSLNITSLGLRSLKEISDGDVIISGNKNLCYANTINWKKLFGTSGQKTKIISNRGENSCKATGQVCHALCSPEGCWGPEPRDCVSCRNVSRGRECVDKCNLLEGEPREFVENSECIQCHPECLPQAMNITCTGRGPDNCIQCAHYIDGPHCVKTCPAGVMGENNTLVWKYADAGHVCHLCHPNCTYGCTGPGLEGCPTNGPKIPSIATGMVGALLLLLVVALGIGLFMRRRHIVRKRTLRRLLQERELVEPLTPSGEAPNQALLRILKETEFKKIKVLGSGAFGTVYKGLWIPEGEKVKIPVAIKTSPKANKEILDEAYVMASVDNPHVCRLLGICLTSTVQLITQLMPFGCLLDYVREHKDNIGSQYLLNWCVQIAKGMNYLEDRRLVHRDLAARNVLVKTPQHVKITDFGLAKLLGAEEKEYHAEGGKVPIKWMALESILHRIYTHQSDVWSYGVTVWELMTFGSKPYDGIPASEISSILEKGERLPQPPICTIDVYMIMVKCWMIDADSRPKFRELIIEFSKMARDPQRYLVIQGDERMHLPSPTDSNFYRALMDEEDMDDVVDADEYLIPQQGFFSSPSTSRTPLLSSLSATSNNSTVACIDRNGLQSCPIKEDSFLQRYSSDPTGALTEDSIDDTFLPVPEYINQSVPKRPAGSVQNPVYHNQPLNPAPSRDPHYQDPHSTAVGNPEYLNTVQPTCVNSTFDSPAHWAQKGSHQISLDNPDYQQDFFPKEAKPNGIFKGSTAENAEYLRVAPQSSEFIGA

NCI-H3255 = assay: Cell proliferation assay (CellTiter-Glo), NCI-H3255; settings: Homo sapiens, value marked (H3255), read-out: 3T3 L858R IC50, (H3255)
Procedure: (§1) Cell proliferation was measured using the CellTiter-Glo® Luminescent Cell Viability Assay. The assay involves the addition of a single reagent (CellTiter-Glo® Reagent) directly to cells cultured in serum-supplemented medium. The assay uses this one-step addition to induce cell lysis and generate a luminescent signal proportional to the amount of ATP present which is directly proportional to the number of metabolically active cells present in culture. The following cell lines were evaluated in this assay: NIH3T3/EGFR_L858R, NIH3T3/EGFR_E746-A750_deletion, NIH3T3/EGFR L858R+T790M, NIH3T3/EGFR_E746-A750_deletion+T790M, PC-9, PC9-DRH, NCI-H1975, and NCI-H3255. NIH/3T3 parental cells, NCI-H1975, and NCI-H3255 were purchased from the American Type Culture Collection (Manassas, Va.), and PC-9 cells were obtained from Japan. All cells were cultured according to recommendations. NIH/3T3 cells were grown in DMEM (Invitrogen, Carlsbad, Calif.) supplemented with 10% newborn calf serum (Invitrogen), and NIH3T3/EGFR mutant cells were grown in complete media with 5 μg/mL puromycin (Invitrogen). PC-9, NCI-H1975, and NCI-H3255 were grown in RPMI (Invitrogen, Carlsbad, Calif.) supplemented with 10% FBS (Sigma, St Louis, Mo.), and PC9-DRH cells were grown in complete media with 2 uM PF-00299804. Plasmids (pLPCX) with various EGFR constructs were made by GenScript (Piscataway, N.J.), and stable pools of NIH/3T3 cells expressing these constructs were made at Pfizer La Jolla. PC9-DRH cells were generated at Pfizer La Jolla by exposing cells to increasing concentrations of PF-00299804. Cells were plated in complete culture media (3000-5000 cells/well, 50 μl/well) on the bottom of white clear-bottom tissue culture treated microtiter plates (#3610, Corning Inc, Corning, N.Y.) and allowed to adhere overnight at 37° C., 5% CO2. The following day, compound dilution plates were prepared in 96 well clear V-bottom 0.5 mL polypropylene block plates (#3956, Corning, Inc). All cell lines were not evaluated for each compound. Each compound evaluated was prepared as a DMSO stock solution (10 mM). Compounds were tested in duplicate on each plate, with an 11-point serial dilution curve (1:3 dilution). Compound treatment (50 μl) was added from the compound dilution plate to the cell plate. The highest compound concentration was 1 or 10 μM (final), with a 0.3% final DMSO (#D-5879, Sigma, St Louis, Mo.) concentration. Plates were then incubated at 37° C., 5% CO2. After three to five days of compound treatment, CellTiter-Glo® Reagent (#G7573, Promega, Madison, Wis.) was prepared in one of two ways. If thawing a frozen aliquot of CellTiter-Glo® Reagent, the aliquot was thawed and equilibrated to room temperature prior to use while keeping it protected from light. Alternatively, new bottles of CellTiter-Glo® Buffer and CellTiter-Glo® Substrate were thawed and equilibrated to room temperature prior to use. CellTiter-Glo® Buffer (100 mL) was transferred into the amber bottle containing CellTiter-Glo® Substrate to reconstitute the lyophilized enzyme/substrate mixture, forming the CellTiter-Glo® Reagent. The reconstituted reagent was mixed by gently inverting the contents to obtain a homogeneous solution, and went into solution easily in less than one minute. Any unused reconstituted CellTiter-Glo® Reagent was immediately aliquoted and frozen at −20° C., protected from light. Cell plates were equilibrated at room temperature for approximately 30 minutes. An equivolume amount of CellTiter-Glo® Reagent (100 μL) was added to each well. Plates were mixed for two minutes on an orbital shaker to induce cell lysis, and then allowed to incubate at room temperature for 10 minutes to stabilize the luminescent signal. Luminescence was recorded using the PerkinElmer EnVision Excite Multilabel Reader used for endpoint reading for Luminescence detection (Waltham, Mass.). Data were analyzed using a four-parameter fit in Microsoft Excel. […]

PC-9 = assay: Cell proliferation assay (CellTiter-Glo), PC-9; settings: Homo sapiens, value marked (PC9), read-out: 3T3 del IC50, (PC9)
Procedure: as §1

NIH3T3/EGFR L858R+T790M = assay: Cell proliferation assay (CellTiter-Glo), NIH3T3/EGFR L858R+T790M; settings: Mus musculus, NIH3T3, 120 h, 3T3 cell line, three to five days of compound treatment, read-out: 3T3 L858R_T790M IC50
[3] = test system: NIH3T3/EGFR_E746-A750_deletion+T790M; assay: Cell proliferation assay (CellTiter-Glo), NIH3T3/EGFR_E746-A750_deletion+T790M; settings: Mus musculus, NIH3T3, 120 h, 3T3 cell line, three to five days of compound treatment, read-out: 3T3 del_T790M IC50
Outline: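 NIH3T3 pools stably expressing EGFR mutants (puromycin, 10% newborn calf serum) or PC-9-derived lines (RPMI, 10% FBS) were plated at 3000-5000 cells/well and attached overnight. Cells received an 11-point 1:3 dilution, top 1 or 10 μM final, 0.3% DMSO, for three to five days at 37 °C. CellTiter-Glo luminescence was fitted with four parameters.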

PC9-DRH = assay: Cell proliferation assay (CellTiter-Glo), PC9-DRH; settings: value marked (PC9-DRH), read-out: 3T3 del_T790M IC50, (PC9-DRH)
Procedure: as §1

EGFR L858R+T790M = EGFR L858R+T790M (Homo sapiens, UniProt P00533, L858R/T790M); assay: pEGFR Y1068 ELISA assay, NIH3T3/EGFR_L858R+T790M cells; settings: 3T3 cell line, 2 hrs compound treatment; read-out: pEGFRY1068 ELISA3T3T790M—L858R IC50;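 further: sandwich ELISA of EGFR phosphorylated at Tyr1068 in lysates of stably transfected NIH/3T3 cells, 11-point threefold dilution series run in duplicate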
EGFR L858R+T790M, sequence (P00533 25-1210 T790M/L858R): as the sequence (P00533 25-1210 T790M/L858R) above

EGFR L858R = EGFR L858R (Homo sapiens, UniProt P00533, L858R); assay: pEGFR Y1068 ELISA assay, NIH3T3/EGFR_L858R cells; settings: 3T3 cell line, 2 hrs compound treatment; read-out: pEGFRY1068 ELISA3T3 L858R IC50;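 further: sandwich ELISA of phospho-EGFR Tyr1068 in lysates of stably transfected NIH/3T3 pools after 2 h compound exposure at 37 °C, 11-point threefold dilution series run in duplicate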
NCI-H1975 = assay: Cell proliferation assay (CellTiter-Glo), NCI-H1975; settings: Homo sapiens, value marked (H1975), read-out: 3T3 L858R_T790M IC50, (H1975)
Procedure: as §1

SMILES | IC50 [1] [nM] | IC50 (EGFR L858R, endogenous) [nM] | IC50 [2] [nM] | IC50 (EGFR Del (PC9)) [nM] | IC50 (NCI-H3255) [nM] | IC50 (PC-9) [nM] | IC50 (NIH3T3/EGFR L858R+T790M) [nM] | IC50 [3] [nM] | IC50 (PC9-DRH) [nM] | IC50 (EGFR L858R+T790M) [nM] | IC50 (EGFR L858R) [nM] | IC50 (NCI-H1975) [nM]
C=CC(=O)N(C)[C@H]1C[C@H](Oc2nc(Nc3cnn(C)c3)nc3[nH]cc(-c4ccccn4)c23)C1 [Example 89] | 6 | 33 | 1650 | 42 | 100 to 1000 | 100 to 1000 | 10 to 100 | 10 to 100 |  |  |  | 
C=CC(=O)N1C[C@@H](F)[C@H](Nc2nc(Nc3cnn(C)c3)nc3[nH]cc(Cl)c23)C1 (single isomer, unassigned) [Example 83] | 5 | 31 | 450 | 87 | 10 to 100 | 100 to 1000 | 10 to 100 |  | 10 to 100 |  |  | 
C=CC(=O)N1C[C@H](Nc2nc(Nc3cnn(C)c3)nc3[nH]cc(Cl)c23)[C@@H](C(F)(F)F)C1 [Example 87] | 14 | 43 | 948 | 48 | 10 to 100 | > 1000 | 100 to 1000 |  | 100 to 1000 |  |  | 
C=CC(=O)N1C[C@H](COc2nc(Nc3cnn(C)c3)nc3[nH]cc(Cl)c23)[C@@H](F)C1 [Example 90] |  |  |  |  | 10 to 100 |  |  |  |  |  |  | 
C=CC(=O)N(C)[C@H]1C[C@H](Oc2nc(Nc3cnn(CC#N)c3)nc3[nH]cc(Cl)c23)C1 [Example 116] | 24 | 107 |  | 328 |  |  | 10 to 100 |  |  |  |  | 
C=CC(=O)N(C)[C@H]1C[C@H](Nc2nc(Nc3cn(C)nc3C)nc3[nH]cc(Cl)c23)C1 [Example 98] |  | 139 | 4290 | 472 | 10 to 100 | 100 to 1000 | 10 to 100 |  | 10 to 100 | 27 |  | 
C=CC(=O)N(C)[C@H]1C[C@H](Oc2nc(Nc3cnn(C)c3)nc3[nH]cc(-c4cnn(C)c4)c23)C1 [Example 95] | 1570 | 2440 | > 10000 | 8570 |  |  |  |  |  |  |  | 
C=CC(=O)N1C[C@H](Nc2nc(Nc3cnn(C)c3)nc3[nH]cc(Cl)c23)[C@@H](C(F)F)C1 [Example 85] |  | 61 |  | 154 | 10 to 100 | > 1000 | 10 to 100 |  | 100 to 1000 | 191 |  | 
C=CC(=O)N[C@]1(C)C[C@@H](Oc2nc(Nc3cnn(C)c3)nc3[nH]cc(Cl)c23)C1 [Example 113] | 457 | > 8580 | > 10000 | > 10000 |  |  |  |  |  |  |  | 
C=CC(=O)N(C)[C@H]1C[C@H](Oc2nc(Nc3cnn(C)c3)nc3[nH]cc(-c4cccnc4)c23)C1 [Example 13, N-methyl-N-[trans-3-({2-[(1-methyl-1H-pyrazol-4-yl)amino]-5-(pyridin-3-yl)-7H-pyrrolo[2,3-d]pyrimidin-4-yl}oxy)cyclobutyl]prop-2-enamide] | 89 | 48 |  | 91 | 100 to 1000 | 100 to 1000 | 100 to 1000 |  | 100 to 1000 |  |  | 
C=CC(=O)N1C[C@@H]2CN(c3nc(Nc4cn(C)nc4OC)nc4[nH]cc(Cl)c34)C[C@@H]2C1 [Example 99] |  |  | 3440 | 812 | > 1000 | > 1000 | 100 to 1000 |  | 100 to 1000 | 377 | 482 | 
C=CC(=O)N1CC(Nc2nc(Nc3cnn(C)c3)nc3[nH]cc(Cl)c23)C1 [Example 79] | 136 | 776 | > 10000 | > 6760 |  |  |  |  |  |  |  | 
C=CC(=O)N1CC[C@@H](Nc2nc(Nc3cnn(C)c3)nc3[nH]cc(Cl)c23)C1 [Example 96] | 15 | 101 | 2180 | 342 | 100 to 1000 | 100 to 1000 | 10 to 100 |  | 10 to 100 |  |  | 
C=CC(=O)N1C[C@H](COc2nc(Nc3cnn(C)c3)nc3[nH]cc(Cl)c23)[C@@H](C(F)(F)F)C1 [Example 110] |  |  |  |  | 100 to 1000 | 100 to 1000 |  |  |  |  |  | > 1000
